In US20120128580A1, “PRESELECTION OF SUBJECTS FOR THERAPEUTIC TREATMENT WITH ELESCLOMOL BASED ON HYPOXIC STATUS” (SYNTA PHARMACEUTICALS CORP., priority 2010, published 2012):

Columns and labels:
solid tumors = experiment: Trial of elesclomol in subjects with solid tumors stratified by level of hypoxia; assay type: in vivo, human; details: elesclomol alone or in combination
Text: Subjects diagnosed with solid tumors are recruited for a study to determine the efficacy of elesclomol in the treatment of solid tumors, preferably tumors from the same tissue origin, e.g., breast, prostate, lung, liver, brain, colorectal, etc. Inclusion criteria include the presence of a solid tumor. Exclusion criteria include the presence of an ischemia related disease or disorder including, e.g., ischemic heart or vascular disease, poor circulation, diabetes, macular degeneration, recent stroke, or other ischemic events or conditions; or surgery planned during the duration of the trial. […]
All subjects are treated with elesclomol, either alone or in combination with one or more additional chemotherapeutic agents. […] Subjects are monitored for response to the agent throughout the trial, at the end of the trial, and at regular intervals after the conclusion of the trial using routine methods including, but not limited to, e.g., imaging, hematology, and physical examination. […] Preferably, the subjects continue to be monitored for outcomes beyond the formal end of the trial. […]
An analysis of the samples collected from subjects prior to and optionally during treatment is performed to determine the efficacy of elesclomol for the treatment of cancer based on the level of hypoxia of the tumor based on markers assessed prior to and optionally during the treatment of the subjects. […]

cancer = experiment: Chart review of treatment outcomes by level of hypoxia; assay type: in vivo, human
Method: A chart review analysis is performed to determine the efficacy of elesclomol for the treatment of cancer based on the level of hypoxia of the tumor based on markers assessed during the treatment of the subjects. […] Subjects who were treated with elesclomol for whom no levels of hypoxic markers were determined can be used as an unstratified control group to understand the efficacy of elesclomol on a treatment population not selected based on the level of hypoxia in the subject/tumor. Alternatively, the population analyzed in the study for which hypoxia levels (e.g., LDH marker levels) can be compared to historical control samples in which an unstratified population was analyzed for response to elesclomol. […] Preferably, the same marker(s) of hypoxia is measured in each of the subjects, e.g., at least one isoform or subunit of lactate dehydrogenase (LDH) or hypoxia inducible factor (HIF); at least one pro-angiogenic form of vascular endothelial growth factor (VEGF), phosphorylated VEGF receptor (pKDR) 1, 2, or 3; neurolipin 1 (NRP-1), pyruvate dehydrokinase (PDH-K), and ornithine decarboxylase (ODC). […]

Which “response of subjects with a low level of hypoxia compared to a high level of hypoxia” value (solid tumors) does the source give for CN(NC(=O)CC(=O)NN(C)C(=S)c1ccccc1)C(=S)c1ccccc1 [Elesclomol, N-malonyl-bis(N′-methyl-N′-thiobenzoylhydrazide)] here?
The value was “better response”.

What about the “response of subjects with a low level of hypoxia compared to a high level of hypoxia” value (cancer) of the same molecule?
Its value is “better response”.
